The values below come from article PMC8224687, “Lipophilicity, Pharmacokinetic Properties, and Molecular Docking Study on SARS-CoV-2 Target for Betulin Triazole Derivatives with Attached 1,4-Quinone” (Pharmaceutics, 2021).

Where two headings read alike, the source gives them in different places.

Series [1] is described as follows: Experimental lipophilicity by RP-TLC (RM0, logPTLC, hydrophobic index). The conditions noted are these: for RM0 (chromatographic parameter of lipophilicity): RP-TLC, acetone / TRIS 0.2 M pH 7.4, extrapolated to zero acetone; for logPTLC (experimental lipophilicity) / chromatographic logP: from RM0 by calibration curve Equation (4); for hydrophobic index (φ0): φ0 = −RM0/b; for chromatographic logP: logPTLC (experimental lipophilicity).

The nature of series [2]: physchem.
On the set-up of series [3]: method as in PMID 9879505, doi:10.1021/ja00193a003. The conditions noted are these: literature values of standard substances ref 52, 53; cited from earlier work.
For series [4] the following is noted: pH 7.4.

Take `C=C(C)[C@@H]1CC[C@]2(COC(=O)c3cn(CCCOC4=C(Cl)C(=O)c5ccc(C)nc5C4=O)nn3)CC[C@]3(C)C(CCC4[C@@]5(C)CC[C@H](OC(C)=O)C(C)(C)C5CC[C@]43C)C12` (stereo partly shown) [Compound 11]: in series [1], the “RM0 (chromatographic parameter of lipophilicity)” value (shortened to “RM0”) is recorded as 4.12, the “logPTLC (experimental lipophilicity)” value worked out at 5.26 and the “hydrophobic index (φ0)” value is 85.94.

In series [2], `C[C@]12C=CC(=O)C=C1CC[C@@H]1[C@@H]2C(=O)C[C@@]2(C)[C@H]1CC[C@]2(O)C(=O)CO` [Prednisone, prednisone, reference compound] yielded a chromatographic logP of 1.39. Further, the “RM0” value in series [1] is 0.73.

With `c1ccc2cc3ccccc3cc2c1` [Anthracene, anthracene, reference compound], in series [1], the “RM0” value is 3.48 and the chromatographic logP turned out to be 4.52.

Take `C=C(C)[C@@H]1CC[C@]2(COC(=O)c3cn(CCCO)nn3)CC[C@]3(C)C(CCC4[C@@]5(C)CC[C@H](OC(=O)CC)C(C)(C)C5CC[C@]43C)C12` (stereo partly shown) [Compound 20]: in series [1], the “RM0” value is 5.26, the chromatographic logP turned out to be 6.55 and the “hydrophobic index (φ0)” value amounted to 87.13.

With `C=C(C)[C@@H]1CC[C@]2(COC(=O)c3cn(CCCOC4=C(Cl)C(=O)c5ccccc5C4=O)nn3)CC[C@]3(C)C(CCC4[C@@]5(C)CCC(=O)C(C)(C)C5CC[C@]43C)C12` (stereo partly shown) [Compound 14], in series [1], the “RM0” value was 3.84, the “logPTLC (experimental lipophilicity)” value came to 4.93 and the “hydrophobic index (φ0)” value was 87.76.

Turning to `C=C(C)[C@@H]1CC[C@]2(COC(=O)c3cn(CCCOC4=C(Cl)C(=O)c5ccccc5C4=O)nn3)CC[C@]3(C)C(CCC4[C@@]5(C)CC[C@H](O)C(C)(C)C5CC[C@]43C)C12` (stereo partly shown) [Compound 13], in series [1], the “RM0” value is 3.78, the “logPTLC (experimental lipophilicity)” value is listed as 4.87 and the “hydrophobic index (φ0)” value came out at 87.13.

As for `C=C(C)[C@@H]1CC[C@]2(COC(=O)c3cn(CCCOC4=C(Cl)C(=O)c5ccccc5C4=O)nn3)CC[C@]3(C)C(CCC4[C@@]5(C)CC[C@H](OC(C)=O)C(C)(C)C5CC[C@]43C)C12` (stereo partly shown) [Compound 15], in series [1], the “RM0” value was 4.21, the “logPTLC (experimental lipophilicity)” value is recorded as 5.35 and the “hydrophobic index (φ0)” value is 85.11.

Take `C=C(C)[C@@H]1CC[C@]2(COC(=O)c3cn(CCCOC4=C(Cl)C(=O)c5ccncc5C4=O)nn3)CC[C@]3(C)C(CCC4[C@@]5(C)CC[C@H](O)C(C)(C)C5CC[C@]43C)C12` (stereo partly shown) [Compound 5]: in series [1], the “RM0” value is listed as 3.56 and the “hydrophobic index (φ0)” value worked out at 79.81.

Take `C=C(C)[C@@H]1CC[C@]2(COC(=O)c3cn(CCCOC4=C(Cl)C(=O)c5ccc(C)nc5C4=O)nn3)CC[C@]3(C)C(CCC4[C@@]5(C)CC[C@H](O)C(C)(C)C5CC[C@]43C)C12` (stereo partly shown) [Compound 9]: in series [1], the “RM0” value is on record as 3.65, the chromatographic logP was determined as 4.72 and the “hydrophobic index (φ0)” value came to 82.43.

For the compound `C=C(C)[C@@H]1CC[C@]2(COC(=O)c3cn(CCCO)nn3)CC[C@]3(C)C(CCC4[C@@]5(C)CCC(=O)C(C)(C)C5CC[C@]43C)C12` (stereo partly shown) [Compound 18], in series [1], the “RM0” value is listed as 4.54, the chromatographic logP was 5.73 and the “hydrophobic index (φ0)” value is 83.67.

With `C=C(C)[C@@H]1CC[C@]2(COC(=O)c3cn(CCCOC4=C(Cl)C(=O)c5ccccc5C4=O)nn3)CC[C@]3(C)C(CCC4[C@@]5(C)CC[C@H](OC(=O)CC)C(C)(C)C5CC[C@]43C)C12` (stereo partly shown) [Compound 16], in series [1], the “RM0” value is 4.58, the chromatographic logP stood at 5.77 and the “hydrophobic index (φ0)” value worked out at 86.18.

Regarding `C=C(C)[C@@H]1CC[C@]2(COC(=O)c3cn(CCCOC4=C(Cl)C(=O)c5ccncc5C4=O)nn3)CC[C@]3(C)C(CCC4[C@@]5(C)CC[C@H](OC(=O)CC)C(C)(C)C5CC[C@]43C)C12` (stereo partly shown) [Compound 8], in series [1], the “RM0” value is reported as 4.24, the “logPTLC (experimental lipophilicity)” value came to 5.39 and the “hydrophobic index (φ0)” value came out at 88.21.

As to `C=C(C)[C@@H]1CC[C@]2(COC(=O)c3cn(CCCOC4=C(Cl)C(=O)c5ccc(C)nc5C4=O)nn3)CC[C@]3(C)C(CCC4[C@@]5(C)CC[C@H](OC(=O)CC)C(C)(C)C5CC[C@]43C)C12` (stereo partly shown) [Compound 12], in series [1], the “RM0” value is 4.39, the “logPTLC (experimental lipophilicity)” value is recorded as 5.56 and the “hydrophobic index (φ0)” value was determined as 88.32.

Turning to `C=C(C)[C@@H]1CC[C@]2(COC(=O)c3cn(CCCOC4=C(Cl)C(=O)c5ccc(C)nc5C4=O)nn3)CC[C@]3(C)C(CCC4[C@@]5(C)CCC(=O)C(C)(C)C5CC[C@]43C)C12` (stereo partly shown) [Compound 10], in series [1], the “RM0” value is on record as 3.77 and the “hydrophobic index (φ0)” value is 83.85.

For the compound `C=C(C)[C@@H]1CC[C@]2(COC(=O)c3cn(CCCO)nn3)CC[C@]3(C)C(CCC4[C@@]5(C)CC[C@H](OC(C)=O)C(C)(C)C5CC[C@]43C)C12` (stereo partly shown) [Compound 19], in series [1], the “RM0” value is listed as 5.07, the chromatographic logP is 6.33 and the “hydrophobic index (φ0)” value is 86.06.

In the case of `Clc1ccc(C(c2ccc(Cl)cc2)C(Cl)(Cl)Cl)cc1` [DDT, dichlorodiphenyltrichloroethane, reference compound], the logPlit in series [3] was 6.01. In series [1], the “RM0” value was 4.87 and the “logPTLC (experimental lipophilicity)” value was determined as 6.17.

For `C=C(C)[C@@H]1CC[C@]2(COC(=O)c3cn(CCCOC4=C(Cl)C(=O)c5cccnc5C4=O)nn3)CC[C@]3(C)C(CCC4[C@@]5(C)CCC(=O)C(C)(C)C5CC[C@]43C)C12` (stereo partly shown) [Compound 2], in series [1], the “RM0” value is listed as 3.64, the chromatographic logP was 4.71 and the “hydrophobic index (φ0)” value is listed as 83.14.

As to `CC(=O)Nc1ccccc1` [Acetanilide, acetanilide, reference compound], in series [1], the “RM0” value is recorded as 0.55 and the chromatographic logP amounted to 1.19.

On to `CC(=O)c1ccc(Br)cc1` [4-Bromoacetophenone, 4-bromoacetophenone], for which the “RM0” value in series [4] stood at 1.89.

Regarding `C=C(C)[C@@H]1CC[C@]2(COC(=O)c3cn(CCCO)nn3)CC[C@]3(C)C(CCC4[C@@]5(C)CC[C@H](O)C(C)(C)C5CC[C@]43C)C12` (stereo partly shown) [Compound 17], in series [1], the “RM0” value is 4.40, the chromatographic logP worked out at 5.57 and the “hydrophobic index (φ0)” value was 82.62.

Take `C=C(C)[C@@H]1CC[C@]2(COC(=O)c3cn(CCCOC4=C(Cl)C(=O)c5cccnc5C4=O)nn3)CC[C@]3(C)C(CCC4[C@@]5(C)CC[C@H](O)C(C)(C)C5CC[C@]43C)C12` (stereo partly shown) [Compound 1]: in series [1], the “RM0” value is 3.51 and the “hydrophobic index (φ0)” value is given as 82.40.

With `C=C(C)[C@@H]1CC[C@]2(COC(=O)c3cn(CCCOC4=C(Cl)C(=O)c5cccnc5C4=O)nn3)CC[C@]3(C)C(CCC4[C@@]5(C)CC[C@H](OC(=O)CC)C(C)(C)C5CC[C@]43C)C12` (stereo partly shown) [Compound 4], in series [1], the “RM0” value is 4.08, the chromatographic logP came to 5.21 and the “hydrophobic index (φ0)” value was 87.00.

Consider `C=C(C)[C@@H]1CC[C@]2(COC(=O)c3cn(CCCOC4=C(Cl)C(=O)c5ccncc5C4=O)nn3)CC[C@]3(C)C(CCC4[C@@]5(C)CC[C@H](OC(C)=O)C(C)(C)C5CC[C@]43C)C12` (stereo partly shown) [Compound 7], for which, in series [1], the “RM0” value is 4.07, the chromatographic logP came to 5.2 and the “hydrophobic index (φ0)” value is 83.48.

On to `C=C(C)[C@@H]1CC[C@]2(COC(=O)c3cn(CCCOC4=C(Cl)C(=O)c5ccncc5C4=O)nn3)CC[C@]3(C)C(CCC4[C@@]5(C)CCC(=O)C(C)(C)C5CC[C@]43C)C12` (stereo partly shown) [Compound 6], for which, in series [1], the “RM0” value is recorded as 3.59 and the “hydrophobic index (φ0)” value was 82.83.

Take `C=C(C)[C@@H]1CC[C@]2(COC(=O)c3cn(CCCOC4=C(Cl)C(=O)c5cccnc5C4=O)nn3)CC[C@]3(C)C(CCC4[C@@]5(C)CC[C@H](OC(C)=O)C(C)(C)C5CC[C@]43C)C12` (stereo partly shown) [Compound 3]: in series [1], the “RM0” value is 3.97, the “logPTLC (experimental lipophilicity)” value is on record as 5.08 and the “hydrophobic index (φ0)” value is on record as 84.76.

`c1ccc(CCc2ccccc2)cc1` [Dibenzyl, dibenzyl]: the “RM0” value in series [4] worked out at 3.65.

What is called chromatographic logP is lipophilicity estimated from chromatographic retention. High values mean a more lipophilic compound, low ones a more hydrophilic compound.
